Each structure is given as a SMILES string. Like-named read-outs stand apart in the source and are kept apart here.

The test system of test [1] is SK-MEL-28 and SK-MEL-5 cells (pERK, pMET, AKT). In words: HGF-stimulated melanoma cell signal transduction assay. Format: cell-based. The following applies: 50 nM, 50 ng/mL HGF 1 hr. The procedure: SK-MEL-5 and SK-MEL-28 cells were added to 12-well plates at 450,000 and 250,000 cells/well, respectively, and incubated overnight. […] Cells were then stimulated with 50 ng/mL HGF for 1 hr. Antibodies were obtained from Cell Signaling Technology.

The subject of test [2] is HMVEC capillary tube formation. Description: HMVEC capillary tube formation. Format: cell-based. The note with it: Homo sapiens. Here is the method:
Growth factor reduced Matrigel gel solution (BD Biosciences, San Jose, Calif.) was dispensed using pre-chilled tips into each well of a pre-chilled 96-well black, clear bottom, tissue-culture treated plate. The plate was incubated at 37° C. for 1 h to allow the matrix to form a gel. […] The cell/Compound 1 suspensions were then transferred to the Matrigel plate wells and incubated overnight. The final concentration of DMSO in the assay was 0.5%. The next day, cells were stained with Calcein-AM dye (Life Technologies). Images obtained via fluorescent microscopy were analyzed for tube length using ImagePro Analyzer (Media Cybernetics, Rockville, Md.) with a macro to automatically detect and measure tube formation.

A further test deals with T1, uTIE2 kinase (Homo sapiens, UniProt Q02763).
T1 construct: purchased SignalChem
T1 sequence (Q02763 771-1124): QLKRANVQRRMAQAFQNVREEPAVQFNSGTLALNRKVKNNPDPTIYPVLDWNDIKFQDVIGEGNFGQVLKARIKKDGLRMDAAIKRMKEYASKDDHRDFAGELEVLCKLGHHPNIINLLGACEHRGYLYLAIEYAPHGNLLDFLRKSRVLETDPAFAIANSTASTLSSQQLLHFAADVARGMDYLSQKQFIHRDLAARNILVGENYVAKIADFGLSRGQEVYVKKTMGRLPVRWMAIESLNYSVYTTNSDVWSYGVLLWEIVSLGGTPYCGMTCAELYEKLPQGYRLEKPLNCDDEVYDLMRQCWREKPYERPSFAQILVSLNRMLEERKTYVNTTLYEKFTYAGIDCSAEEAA
In words: Biochemical assay for uTIE2 kinase (pyruvate kinase/lactate dehydrogenase coupled). The following applies: ATP 1.5 mM; rate 5 to 6 h; read-out: IC50, inhibition of uTIE2 kinase. The procedure: Activity of uTIE2 kinase was determined by following the production of ADP from the kinase reaction through coupling with the pyruvate kinase/lactate dehydrogenase system [Schindler 2000]. In this assay, the oxidation of NADH (thus the decrease at A340 nm) was continuously monitored spectrophotometrically. The reaction mixture (100 μL) contained TIE2 (SignalChem) (5.6 nM), BSA (0.004% (w/v)), polyEY (1.5 mg/ml), MgCl2 (15 mM), DTT (0.5 mM), pyruvate kinase (4 units), lactate dehydrogenase (7 units), phosphoenol pyruvate (1 mM), and NADH (0.28 mM) and ATP (1.5 mM) in 90 mM Tris buffer containing 0.2% octyl-glucoside and 1% DMSO, pH 7.5. […] The absorption at 340 nm was monitored continuously for 6 hours at 30° C. on a plate reader (BioTek). The reaction rate was calculated using the 5 to 6 h time frame. Percent inhibition was obtained by comparison of reaction rate with that of a control (i.e. with no test compound).

The next test deals with U87-MG xenograft glioma. In words: Orthotopic U87-MG xenograft survival model. The following applies: bevacizumab 10 mg/kg IP twice weekly; Compound 1 10 mg/kg twice daily PO; from Day 12.
The test system of test [3] is circulating TIE2+ and TIE2+/MET+ monocytes. Description: Flow cytometry of circulating TIE2/MET-expressing monocytes from U87-MG xenograft model. Format: in vivo, mice. The following applies: single agents; after five weeks of treatment. Here is the method:
Flow cytometry of circulating TIE2/MET-expressing monocytes from U87-MG xenograft model. Peripheral blood samples were fixed using Lyse/Fix buffer (BD Biosciences, San Jose, Calif.). BD Fc Block was added and cells were stained with CD11b-PECy7 and Gr1-APC antibodies (BD Pharmingen), and TIE2-PE and MET-FITC antibodies (eBioscience) or isotype controls. Data was collected on an Accuri C6 cytometer. Monocytes were gated using side and forward scatter.
To monitor these monocytes in the U87 survival model, peripheral monocytes were gated on CD11b+/Grl-surface markers and TIE2^+ and/or TIE2^+/MET^+ cells quantitated. In the U87 glioma survival study, we observed both of these TIE2^+ expressing monocyte populations in the circulation of vehicle-treated mice after five weeks of treatment. […] The lowered population of both of these TIE2^+ monocyte populations in the combination cohort was consistent with greater survival benefit (FIG. 6).
For orientation: A flow cytometer gives signals particle by particle.

In another test the test system is GSC11 glioblastoma cells. Description: GSC11 glioma stem cell patient-derived xenograft model (tumor volume, immunohistochemistry). Format: in vivo, mice. The procedure:
For the in vivo experiments, 4- to 6-week-old female nude mice that were strictly inbred at The University of Texas MD Anderson Cancer Center and maintained in the MD Anderson Veterinary in accordance with institutional guidelines were used. For the in vivo experiments, GSC11 (5×10^5) or GSC17 (5×10^4) glioblastoma cells were implanted intracranially into nude mice. […] Control mice for these cohorts were treated with phosphate-buffered saline by i.p. injection and/or with 0.4% HPMC vehicle by oral gavage. One cohort of 10 mice per group were treated continuously and followed for survival. A separate cohort of 9 mice per group were treated continuously until the designated time point, and the tumors from these mice were extracted at 3, 4, 5 weeks in GSC11 xenograft mice model and at 3.5, 4.5, 5.5 weeks in GSC17 xenograft mice model after the start of treatment.
When the mice treated for the designated time period developed signs and symptoms of advanced tumors, they were euthanized, and their brains were removed, fixed in 4% formaldehyde for 24 hours, and embedded in paraffin. The tissues were then sectioned serially (4 μm) and stained with hematoxylin and eosin (Sigma-Aldrich). Tumor formation and phenotype were determined by histologic analysis of the hematoxylin- and eosin-stained sections. The tumor volume, greatest longitudinal diameter (length), and greatest transverse diameter (width) were measured using an external caliper and Adobe Illustrator software. The tumor volumes were calculated by the following formula: volume=½(length×width^2).
For immunohistochemical analyses, the tissue sections were deparaffinized and subjected to graded rehydration. After blocking the tissue in 5% horse and goat serum and antigen retrieval solution (citrate buffer, pH 6.0), we incubated the tissue sections overnight at 4° C. with primary antibodies against Factor VIII (1:500; A0082, Dako) to assess microvessel formation, vimentin (1:100; M0725, Dako) to assess mesenchymal marker expression, F4/80 (1:50; 123102, BioLegend) to assess monocyte infiltration, nestin (1:300; Ab6142, Abcam) to assess glioma stem cell marker expression, HGF (1:200; LS-B4657, LSBio), and TIE2 (1:50; Santa Cruz Biotechnology) to assess TIE2-expressing monocyte infiltration. Texas red fluorescein isothiocyanate-conjugated secondary antibodies or anti-rat immunoglobulin G antibodies (Invitrogen) were used for 1 hour at room temperature.
All statistical analyses were conducted with the GraphPad 6 (InStat) software for Windows 7. Survival analysis was conducted using the Kaplan-Meier method, and differences in survival between treatment groups were assessed using the log-rank test. All other comparisons were performed using an unpaired two-tailed Student t-test. Summary statistics for continuous data are expressed as the mean±standard error of the mean. P values less than 0.05 were considered statistically significant. The nestin staining was assessed using the Image-Pro Plus system version 7.0 (Media Cybernetics) in ×10 fields of at least three tumor samples per group with three to four different sections per tumor sample.

Description for U87-MG xenograft glioma: Protocol for in vivo xenograft survival study. Female nude mice were implanted intracranially with one million luciferase-enabled U87-MG cells. Treatments began on Day 12. Mice (n=10/group) were dosed until the end of study. Three additional mice were treated as above for pharmacodynamic analysis after five weeks. Brain BLI signal was determined using an IVIS 50 optical imaging system (Xenogen, Alameda, Calif.). Animals were injected IP with 150 mg/kg D-Luciferin and imaged 10 min post-injection.
Treatment began on Day 12, when the mean brain BLI signal was 5.8×10^6 photons/sec, and continued until the end of study. Mice were followed through survival.

Take `O=C(Nc1cc(Oc2cc(F)c(NC(=O)C3(C(=O)Nc4ccc(F)cc4)CC3)cc2F)ccn1)C1CC1` [Compound 1, N-(4-(2-(cyclopropanecarboxamido)pyridin-4-yloxy)-2,5-difluorophenyl)-N′-(4-fluorophenyl)cyclopropane-1,1-dicarboxamide]: the “HGF-induced activation of MET and AKT” value in test [1] is given as “inhibited”. Further, the IC50 – broadly, the concentration needed to halve the response being measured – in test [2] (40 ng/mL HGF, read-out: IC50, capillary tube formation upon stimulation with HGF) worked out at 11 nM; in test [2] (100 ng/mL VEGF, read-out: IC50, capillary tube formation upon stimulation with VEGF) it was 58 nM; in test [2] (200 ng/mL ANG2, read-out: IC50, capillary tube formation upon stimulation with ANG2) it was 7 nM; on uTIE2 kinase, 7.9 nM. The molecule further gave a Median survival in the test with U87-MG xenograft glioma of 112 days. Further, the “Numbers of circulating TIE2+ and TIE2+/MET+ monocyte populations” value in test [3] is “did not alter”. Further, the “Tumor volume at 3 weeks” value with GSC11 glioblastoma cells (GSC11, bevacizumab 10 mg/kg i.p. twice per week, Compound 1 10 mg/kg oral twice daily) was determined as 1.2±0.5 mm^3. In addition, the “Tumor volume at 4 weeks” value in the test on GSC11 glioblastoma cells (GSC11, same dosing) was 9.8±2.8 mm^3. The “Tumor volume at 5 weeks” value in the test on GSC11 glioblastoma cells (GSC11, same dosing) worked out at 32.3±14.6 mm^3. Further, the “Factor VIII-positive area” value with GSC11 glioblastoma cells (GSC11 model) came out at 1.1±0.5%. This molecule also came in with a Nestin-positive area in the test on GSC11 glioblastoma cells (GSC11 xenograft mouse model) of 17.7±2.7%. Further, the “Mesenchymal tumor marker vimentin / EMT (immunohistochemistry)” value in the test with GSC11 glioblastoma cells (GSC-11 glioma model) is “does not cause elevation of vimentin”. Further, the “Macrophage infiltration into tumor (F4/80 IHC staining)” value with GSC11 glioblastoma cells (GSC-11 glioma xenograft model) is given as “does not result in therapy resistance-mediated increases in macrophage infiltration”.

These data come from patent US20170079966A1, “INHIBITION OF TUMOR CELL INTERACTIONS WITH THE MICROENVIRONMENT RESULTING IN A REDUCTION IN TUMOR GROWTH AND DISEASE PROGRESSION” (Deciphera Pharmaceuticals, LLC, priority 2014, published 2017).
